The text below walks through data of patent publication US20110105477A1, “COMPOSITIONS AND METHODS RELATING TO HIV PROTEASE INHIBITION” (The Regents of the University of Michigan, priority 2007, published 2011).

For the first assay, the target named is HIV-1 protease (Human immunodeficiency virus type 1 group M subtype B, UniProt P04585). The assay can be described thus: HIV protease inhibition assay. It is filed as biochemical.
Details: not given
`CC1=CC(C)(C)Nc2ccc(OC(=O)c3ccccc3Br)cc21` [Compound 3]: the “activity in HIVp inhibition assay (in words)” value is on record as “active”.

The same assay, now with this note: HIVp inhibition.
Broadly, the IC50 is the point on the concentration scale where inhibition reaches its midpoint. Read a low IC50 as inhibition by little substance. Turning to `COc1ccc(C(=O)Oc2ccc3c(c2)C(C)=CC(C)(C)N3)cc1` [Compound 2], the half-inhibitory concentration (IC50) is 18 µM.

Staying with this assay, now noted: remaining HIV-1 protease activity at 150 μM compound.
As for `CC1=CC(C)(C)Nc2ccc(OC(=O)c3sc4cc([N+](=O)[O-])ccc4c3Cl)cc21`, the “Remain Activity” value is 56.93%. Take `CC1=CC(C)(C)Nc2ccc(OC(=O)c3cccnc3)cc21`: the “Remain Activity” value was found to be 58.86%. Take `COc1cc(OC)cc(C(=O)Oc2ccc3c(c2)C(C)=CC(C)(C)N3)c1`: the “Remain Activity” value is listed as 59.22%. As for `CC1=CC(C)(C)Nc2ccc(OC(=O)c3ccc4c(c3)OCO4)cc21`, the “Remain Activity” value stood at 63.58%. Turning to `CC1=CC(C)(C)Nc2ccc(OC(=O)c3cccs3)cc21`, the “Remain Activity” value stood at 64.08%. Turning to `CC1=CC(C)(C)Nc2ccc(OC(=O)c3cccc4ccccc34)cc21`, the “Remain Activity” value is 65.34%. As to `CC1=CC(C)(C)Nc2ccc(OC(=O)c3ccco3)cc21`, the “Remain Activity” value was 69.67%.

On to `CC1=CC(C)(C)Nc2ccc(OC(=O)c3cccc([N+](=O)[O-])c3)cc21`, for which the “Remain Activity” value amounted to 73.01%.

Take `O=C1c2cccc([N+](=O)[O-])c2C(=O)N1c1ccc2[nH]c(=S)sc2c1`: the “Remain Activity” value was 36.93%. For the molecule `O=C1[C@H]2CCCC[C@H]2C(=O)N1c1ccc2[nH]c(=S)sc2c1`, the “Remain Activity” value was found to be 51.9%. `O=C(Nc1ccc2[nH]c(=S)sc2c1)c1ccccc1`: the “Remain Activity” value was determined as 65.14%. `Cc1cc(=O)n2nc(NCc3cccs3)nc2[nH]1`: the “Remain Activity” value came out at 63.59%. With `Cc1[nH]c2nc(NCc3cccc(Br)c3)nn2c(=O)c1Cl`, the “Remain Activity” value came to 71.2%. Take `Cc1cc(=O)n2nc(N3C(=O)[C@H]4CCCC[C@H]4C3=O)nc2[nH]1`: the “Remain Activity” value was found to be 67.49%. On the same count and under the same terms, under `O=c1c2c([nH]c3nc(COc4ccccc4)nn13)CCC2` stands 57.77%; under `CCOc1ccccc1CNc1nc2[nH]c3c(c(=O)n2n1)CCC3`, 75.44%; under `O=C(Nc1ccc(F)cc1F)c1cc2n(n1)[C@H](C(F)(F)F)[C@H]1CCCC[C@H]1N2`, 64.91%. On to `CC1=NNc2nc3c(c(=O)n(Cc4ccccc4)c(=O)n3C)n2C1`, for which the “Remain Activity” value stood at 65.08%. With `CC1=CC(C)(C)Nc2ccc(OC(=O)c3ccccc3Br)cc21` [drawing 433], the “Remain Activity” value is recorded as 65.33%.
